Tested on: Human umbilical vein endothelial cells (HUVECs)
Experiment: eNOS activity analysis: NO, ONOO− and NO/ONOO− release from HUVECs of 50 genotyped donors in response to LA-419 (Example 2)
Format: cell-based
Procedure: Concurrent measurements of NO and ONOO^− were carried out with tandem electrochemical nanosensors combined into one working unit with a total diameter of 200-500 nm (FIG. 1). Their design was based on previously developed and well-characterized chemically modified carbon-fiber technology (Malinski and Taha, 1992; Lvovich and Scheeline, 1997). Each of the nanosensors was made by depositing a sensing material on the tip of a carbon fiber (length 4-5 μm, diameter 0.2-0.5 μm). The fibers were sealed with nonconductive epoxy and electrically connected to copper wires with conductive silver epoxy. A conductive film of polymeric nickel (II) tetrakis(3-methoxy-4-hydroxyphenyl)porphyrin for the NO-sensor and polymeric film of Mn (III) [2.2]paracyclophanylporphyrin was used for the ONOO^−-sensor.
A module of NO/ONOO^− nanosensors (diameter 1-2 μm) with a platinum wire (0.1 mm) counter electrode and saturated calomel reference electrode (SCE) were applied. Differential pulse voltammetry (DPV) and amperometry were performed with a computer-based Gamry VFP600 multichannel potentiostat. DPV was used to measure the basal NO and ONOO^− concentrations, and amperometry was used to measure changes in NO and ONOO^− concentrations from its basal level with time. The DPV current at the peak potential characteristic for NO oxidation (0.65 V) and ONOO^− reduction (−0.45 V) was directly proportional to the local concentrations of these compounds in the immediate vicinity of the sensor. Linear calibration curves (current vs. concentration) were constructed for each sensor from 10 nM to 3 μM before and after measurements with aliquots of NO and ONOO^− standard solutions, respectively. The detection limit of the sensors was 1.0 nM.
The quantification of each analyte (concentration in nM) was performed using a maximum current from amperograms and standard calibration curves. A reproducibility of measurements with nanosensors is relatively high (between 5-12%). […] The sensors were slowly raised 5±2 μm from the surface of a single endothelial cell. The eNOS agonist, calcium ionophore A23187 (CaI) as well as the different drugs were then added to the surrounding media at the cell surface with a nanoinjector that was also positioned by a computer controlled-micromanipulator.
This example describes the genotype-specific response of the three major eNOS variants to 1 μM and 5 μM concentrations of LA-419. The three major genetic polymorphisms studied were the Glu298Asp variant (E298D or 894G→T) in exon 7 of […], the −786T→C variant in the promoter region, and the intron 4 polymorphism (VNTR). All of these variants have possible effects on the cardiovascular system and endothelial dysfunction. For this study, human umbilical vein endothelial cells (HUVECs) from 50 donors between 18 and 32 years of age were used.
For the analysis several analysis techniques were employed. First, the effect of genotype on NO and ONOO^− release was explored within the different concentrations of LA-419 (control, 1 μM, 5 μM), calculated as the average peak release (nmols/L) of NO, ONOO^−, and NO/ONOO^−. The effect of genotype on the net increase in NO, ONOO^−, and NO/ONOO^− for LA-419 (1 μM and 5 μM) as compared to control was also measured. In addition, an analysis was done on the effect of genotype on the % change in NO, ONOO^−, and NO/ONOO^− production for LA-419 (1 μM and 5 μM), calculated as:
% Change=[(avg. LA-419−avg. control)/(avg. control)]*100
Finally, an evaluation was undertaken concerning the effect of genotype on the production of NO, ONOO^−, and NO/ONOO^− as the fold difference of control for LA-419 (1 μM and 5 μM), calculated as:
Fold Difference=(avg. LA-419)/(avg. control)
Within each calculation technique the results were compared for statistical significance using a non-parametric ANOVA Kruskal-Wallace test or a non-parametric Mann-Whitney U test. Statistical significance was set at a p-value <0.05 in a two-tailed distribution. […]

[1] = (LA-419 5 μM)/(control), T-786C C/C, n=4
[2] = (LA-419 5 μM)/(control), T-786C T/C & C/C, n=27
[3] = (LA-419 5 μM)/(control), T-786C T/C, n=23
[4] = (LA-419 5 μM)/(control), T-786C T/T & T/C, n=45
[5] = (LA-419 5 μM)/(control), T-786C T/T, n=22
[6] = Caucasian, (LA-419 1 μM)/(control), Combination of all G894T + T-786C genotypes but G/G + T/T, n=19
[7] = Caucasian, (LA-419 1 μM)/(control), G894T + T-786C G/G + T/C, n=3
[8] = Caucasian, (LA-419 1 μM)/(control), G894T + T-786C G/G + T/T, n=7
[9] = Caucasian, (LA-419 1 μM)/(control), G894T + T-786C G/T + T/C, n=10
[10] = Caucasian, (LA-419 1 μM)/(control), G894T + T-786C G/T + T/T, n=3
[11] = Caucasian, (LA-419 1 μM)/(control), G894T + T-786C T/T + T/C, n=2
[12] = Caucasian, (LA-419 1 μM)/(control), G894T G/G, n=10
[13] = Caucasian, (LA-419 1 μM)/(control), G894T G/T & T/T, n=16
[14] = Caucasian, (LA-419 1 μM)/(control), G894T G/T, n=13
[15] = Caucasian, (LA-419 1 μM)/(control), G894T T/T, n=3
[16] = Caucasian, (LA-419 1 μM)/(control), Intron 4 b/a & a/a, n=6
[17] = Caucasian, (LA-419 1 μM)/(control), Intron 4 b/a, n=5
[18] = Caucasian, (LA-419 1 μM)/(control), Intron 4 b/b, n=18
[19] = Caucasian, (LA-419 1 μM)/(control), T-786C T/C & C/C, n=16
[20] = Caucasian, (LA-419 1 μM)/(control), T-786C T/C, n=15
[21] = Caucasian, (LA-419 1 μM)/(control), T-786C T/T, n=10
[22] = Caucasian, (LA-419 5 μM)/(control), Combination of all G894T + T-786C genotypes but G/G + T/T, n=19
[23] = Caucasian, (LA-419 5 μM)/(control), G894T + T-786C G/G + T/C, n=3
[24] = Caucasian, (LA-419 5 μM)/(control), G894T + T-786C G/G + T/T, n=7
[25] = Caucasian, (LA-419 5 μM)/(control), G894T + T-786C G/T + T/C, n=10
[26] = Caucasian, (LA-419 5 μM)/(control), G894T + T-786C G/T + T/T, n=3
[27] = Caucasian, (LA-419 5 μM)/(control), G894T + T-786C T/T + T/C, n=2

CC(=O)SC1COC2C(O[N+](=O)[O-])COC12 (stereo not drawn) [LA-419, S-(6-Nitro-oxi-hexahydro-furo[3,2-b]furan-3-1-il)thioacetate]
Fold difference NO (mean ± sd) [1]: 1.12 (0.06)
Fold difference NO/ONOO− (mean ± sd) [1]: 1.42 (0.13)
Fold difference ONOO− (mean ± sd) [1]: 0.79 (0.08)
Fold difference NO (mean ± sd) [2]: 1.13 (0.07)
Fold difference NO/ONOO− (mean ± sd) [2]: 1.39 (0.13)
Fold difference ONOO− (mean ± sd) [2]: 0.82 (0.06)
Fold difference NO (mean ± sd) [3]: 1.14 (0.07)
Fold difference NO/ONOO− (mean ± sd) [3]: 1.39 (0.14)
Fold difference ONOO− (mean ± sd) [3]: 0.82 (0.06)
Fold difference NO (mean ± sd) [4]: 1.15 (0.06)
Fold difference NO/ONOO− (mean ± sd) [4]: 1.44 (0.16)
Fold difference ONOO− (mean ± sd) [4]: 0.81 (0.07)
Fold difference NO (mean ± sd) [5]: 1.16 (0.06)
Fold difference NO/ONOO− (mean ± sd) [5]: 1.49 (0.18)
Fold difference ONOO− (mean ± sd) [5]: 0.79 (0.08)
Fold difference NO (mean ± sd) [6]: 1.20 (0.29)
Fold difference NO/ONOO− (mean ± sd) [6]: 1.61 (0.77)
Fold difference ONOO− (mean ± sd) [6]: 0.81 (0.16)
Fold difference NO (mean ± sd) [7]: 1.13 (0.03)
Fold difference NO/ONOO− (mean ± sd) [7]: 1.27 (0.04)
Fold difference ONOO− (mean ± sd) [7]: 0.89 (0.02)
Fold difference NO (mean ± sd) [8]: 1.25 (0.12)
Fold difference NO/ONOO− (mean ± sd) [8]: 1.63 (0.72)
Fold difference ONOO− (mean ± sd) [8]: 0.84 (0.22)
Fold difference NO (mean ± sd) [9]: 1.29 (0.37)
Fold difference NO/ONOO− (mean ± sd) [9]: 1.75 (0.91)
Fold difference ONOO− (mean ± sd) [9]: 0.81 (0.16)
Fold difference NO (mean ± sd) [10]: 1.08 (0.03)
Fold difference NO/ONOO− (mean ± sd) [10]: 1.21 (0.04)
Fold difference ONOO− (mean ± sd) [10]: 0.90 (0.06)
Fold difference NO (mean ± sd) [11]: 1.11 (0.36)
Fold difference NO/ONOO− (mean ± sd) [11]: 2.25 (1.17)
Fold difference ONOO− (mean ± sd) [11]: 0.52 (0.11)
Fold difference NO (mean ± sd) [12]: 1.21 (0.12)
Fold difference NO/ONOO− (mean ± sd) [12]: 1.52 (0.61)
Fold difference ONOO− (mean ± sd) [12]: 0.86 (0.18)
Fold difference NO (mean ± sd) [13]: 1.21 (0.32)
Fold difference NO/ONOO− (mean ± sd) [13]: 1.68 (0.83)
Fold difference ONOO− (mean ± sd) [13]: 0.79 (0.17)
Fold difference NO (mean ± sd) [14]: 1.24 (0.33)
Fold difference NO/ONOO− (mean ± sd) [14]: 1.63 (0.82)
Fold difference ONOO− (mean ± sd) [14]: 0.83 (0.15)
Fold difference NO (mean ± sd) [15]: 1.08 (0.26)
Fold difference NO/ONOO− (mean ± sd) [15]: 1.90 (1.02)
Fold difference ONOO− (mean ± sd) [15]: 0.63 (0.19)
Fold difference NO (mean ± sd) [16]: 1.25 (0.33)
Fold difference NO/ONOO− (mean ± sd) [16]: 1.52 (0.70)
Fold difference ONOO− (mean ± sd) [16]: 0.86 (0.10)
Fold difference NO (mean ± sd) [17]: 1.28 (0.35)
Fold difference NO/ONOO− (mean ± sd) [17]: 1.58 (0.77)
Fold difference ONOO− (mean ± sd) [17]: 0.85 (0.12)
Fold difference NO (mean ± sd) [18]: 1.21 (0.25)
Fold difference NO/ONOO− (mean ± sd) [18]: 1.69 (0.80)
Fold difference ONOO− (mean ± sd) [18]: 0.79 (0.20)
Fold difference NO (mean ± sd) [19]: 1.22 (0.31)
Fold difference NO/ONOO− (mean ± sd) [19]: 1.69 (0.82)
Fold difference ONOO− (mean ± sd) [19]: 0.79 (0.17)
Fold difference NO (mean ± sd) [20]: 1.24 (0.32)
Fold difference NO/ONOO− (mean ± sd) [20]: 1.72 (0.84)
Fold difference ONOO− (mean ± sd) [20]: 0.79 (0.17)
Fold difference NO (mean ± sd) [21]: 1.20 (0.13)
Fold difference NO/ONOO− (mean ± sd) [21]: 1.50 (0.62)
Fold difference ONOO− (mean ± sd) [21]: 0.86 (0.18)
Fold difference NO (mean ± sd) [22]: 1.13 (0.06)
Fold difference NO/ONOO− (mean ± sd) [22]: 1.37 (0.10)
Fold difference ONOO− (mean ± sd) [22]: 0.83 (0.06)
Fold difference NO (mean ± sd) [23]: 1.19 (0.02)
Fold difference NO/ONOO− (mean ± sd) [23]: 1.47 (0.08)
Fold difference ONOO− (mean ± sd) [23]: 0.81 (0.03)
Fold difference NO (mean ± sd) [24]: 1.19 (0.08)
Fold difference NO/ONOO− (mean ± sd) [24]: 1.47 (0.14)
Fold difference ONOO− (mean ± sd) [24]: 0.81 (0.04)
Fold difference NO (mean ± sd) [25]: 1.11 (0.05)
Fold difference NO/ONOO− (mean ± sd) [25]: 1.33 (0.06)
Fold difference ONOO− (mean ± sd) [25]: 0.84 (0.04)
Fold difference NO (mean ± sd) [26]: 1.14 (0.06)
Fold difference NO/ONOO− (mean ± sd) [26]: 1.39 (0.14)
Fold difference ONOO− (mean ± sd) [26]: 0.83 (0.11)
Fold difference NO (mean ± sd) [27]: 1.12 (0.09)
Fold difference NO/ONOO− (mean ± sd) [27]: 1.29 (0.01)
Fold difference ONOO− (mean ± sd) [27]: 0.87 (0.06)
Fold difference NO (mean ± sd) (Caucasian, (LA-419 5 μM)/(control), G894T G/G, n=10): 1.19 (0.07)
